Data: patent US20170342499A1, “GENOMIC CLASSIFIER THAT PREDICTS RESPONSE TO MULTI-KINASE INHIBITOR TREATMENT INTRODUCTION” (Centre Léon-Bérard, priority 2014, published 2017)

How the values were obtained:
CRC = assay: Response to conventional chemotherapy versus SUMSCAN prediction in CRC patients; format: in vivo, human; settings: CRC patients (n = 21)
[1] = system: pretreated metastatic colorectal cancer (mCRC); settings: cited from earlier work
[2] = system: imatinib and sunitinib refractory gastrointestinal stromal tumors (GIST); settings: cited from earlier work

Question: What does the source list for `CCc1c2c(nc3ccc(OC(=O)N4CCC(N5CCCCC5)CC4)cc13)-c1cc3c(c(=O)n1C2)COC(=O)[C@]3(O)CC` [Irinotecan]?
Answer: patients resistant to the chemotherapy regimen, n (% of 21) (CRC; SUMSCAN Predicted Resistant): 2 (9.5%); patients sensitive to the chemotherapy regimen, n (% of 21) (CRC; SUMSCAN Predicted Resistant): 7 (33.3%); patients resistant to the chemotherapy regimen, n (% of 21) (CRC; SUMSCAN Predicted Sensitive): 3 (14.3%); patients sensitive to the chemotherapy regimen, n (% of 21) (CRC; SUMSCAN Predicted Sensitive): 9 (42.9%); patients resistant to the chemotherapy regimen, n (% of 21) (CRC; Total): 5 (23.8%); patients sensitive to the chemotherapy regimen, n (% of 21) (CRC; Total): 16 (76.2%)

Question: With `O=C1[O][Pt]2([NH][C@@H]3CCCC[C@H]3[NH]2)[O]C1=O` [Oxaliplatin] as the compound, how does the “patients resistant to the chemotherapy regimen, n (% of 21)” value (“patients resistant … (% of 21)” for short) (CRC; SUMSCAN Predicted Resistant) read?
Answer: 2 (9.5%)

Question: And the “patients sensitive to the chemotherapy regimen, n (% of 21)” value (“patients sensitive … (% of 21)” for short) (CRC; SUMSCAN Predicted Resistant)?
Answer: 7 (33.3%)

Question: And the “patients resistant … (% of 21)” value (CRC; SUMSCAN Predicted Sensitive)?
Answer: 6 (28.6%)

Question: What about the “patients sensitive … (% of 21)” value (CRC; SUMSCAN Predicted Sensitive) of the same compound?
Answer: 6 (28.6%)

Question: What about the “patients resistant … (% of 21)” value (CRC; Total) of the same compound?
Answer: 8 (38.1%)

Question: And the “patients sensitive … (% of 21)” value (CRC; Total)?
Answer: 13 (61.9%)

Question: Which results are given for `CNC(=O)c1cc(Oc2ccc(NC(=O)Nc3ccc(Cl)c(C(F)(F)F)c3)c(F)c2)ccn1` [Regorafenib]?
Answer: improvement in PFS [1]: 0.9 weeks; antitumor activity by nature of the KIT/or PDGFRA mutation ([2]; GIST): observed at the same level regardless of the nature of the KIT/or PDGFRA mutation; improvement in PFS ([2]; imatinib and sunitinib refractory GIST): 4 months
